The values that follow come from patent US20140005163A1 (NOVARTIS AG, priority 2010, published 2014).

The target of one experiment is T1, PI3K alpha (Homo sapiens, UniProt P42336).
T1 construct: p85(iSH2) fusion partner (see partner chain) (N); His tag (C); made in house; host or cells: baculovirus; Tn5 (Trichoplusia ni) or TiniPro insect cells
The experiment is described as follows: PI3K alpha kinase assay (Kinase-Glo luminescence). It is filed as biochemical. The method, then: (§1) In a more preferred assay, the kinase reaction is performed in a final volume of 10 μL per well of a low volume non binding CORNING, 384 well black plate (Cat. No. #3676). The final concentrations of ATP and phosphatidyl inositol (PI) in the assay are 1 μM and 10 μg/mL respectively. The reaction is started by the addition of ATP.
(§2) The components of the assay are added per well as follows:
(§3) […] in 90% DMSO per well, in columns 1-20, 8 concentrations (1/3 and 1/3.33 serial dilution step) in single. • Low control: […] of 90% DMSO in half the wells of columns 23-24 (0.45% in final). • High control: […] of reference compound (e.g. compound of Example 7 in WO 2006/122806) in the other half of columns 23-24 (2.5 μM in final). • Standard: […] of reference compound as just mentioned diluted as the test compounds in columns 21-22 • 20 mL ‘buffer’ are prepared per assay: • 200 μL of 1M TRIS HCl pH7.5 (10 mM in final) • 60 μL of 1M MgCl2 (3 mM in final) • 500 μL of 2M NaCl (50 mM in final) • 100 μL of 10% CHAPS (0.05% in final) • 200 μL of 100 mM DTT (1 mM in final) • 18.94 mL of nanopure water • 10 mL ‘PI’ are prepared per assay: • 200 μL of 1 mg/ml L-alpha-Phosphatidylinositol (Liver Bovine, Avanti Polar Lipids Cat. No. 840042C MW=909.12) prepared in 3% OctylGlucoside (10 μg/ml in final) • 9.8 mL of ‘buffer’ • 10 mL ‘ATP’ are prepared per assay: • 6.7 μL of 3 mM stock of ATP giving a final concentration of 1 μM per well • 10 mL of ‘buffer’ • 2.5 mL of each PI3K construct are prepared per assay in ‘PI’ with the following final concentration: • 10 nM PI3K alfa EMV B1075 • 25 nM beta EMV BV949 • 10 nM delta EMV BV1060 • 150 nM gamma EMV BV950 • 5 μL of ‘PI/PI3K’ are added per well. • 5 μl ‘ATP’ are added per well to start the reaction. • The plates are then incubated at room temperature for 60 minutes (alfa, beta, delta) or 120 minutes (gamma). • The reaction is terminated by the addition of 10 μL Kinase-Glo (Promega Cat. No. #6714). • The assay plates are read after 10 minutes in Synergy 2 reader (BioTek, Vermont USA) with an integration time of 100 milliseconds and sensitivity set to 191. • Output: The High control is around 60'000 counts and the Low control is 30'000 or lower • This luminescence assay gives a useful Z′ ratio between 0.4 and 0.7
Two different constructs, BV 1052 and BV 1075, are used to generate the PI3 Kinase a proteins for compound screening.
(§4) IC50 is determined by a four parameter curve fitting routine that comes along with “excel fit”. […] Alternatively, IC50 values are calculated using idbsXLfit model 204, which is a 4 parameter logistic model.

The target of another experiment is T2, mTOR (Homo sapiens, UniProt P42345).
T2 construct: purchased Invitrogen Corporation (Carlsbad/CA, USA) PV4753
Nature of the experiment: Biochemical assay for m-TOR by TR-FRET. Conditions: 8 μM ATP, 400 nM GFP-4EBP1, 0.5 nM mTOR. As for the experimental part:
Biochemical Assay for m-TOR by TR-FRET.
Assay components are purchased from Invitrogen Corporation (Carlsbad/CA, USA): GFP-4EBP1 (Cat. No. PV4759), Tb3+-α-p4EBP1 [pThr46] Antibody (Cat. No. PV4757), proprietary TR-FRET dilution buffer (Cat. No. PV3574), mTOR protein (Cat. No. PV4753).
Then 5 μL of ATP (8 μM final concentration) and GFP-4EBP1 (400 nM final concentration) with 5 μL mTOR proteins (0.5 nM final concentration) are incubated at rt. The standard reaction buffer for the TR-FRET mTOR assay contained 50 mM HEPES pH 7.5, 10 mM MnCl2, 50 mM NaCl, 1 mM EGTA, 1 mM DTT. Reactions were stopped with 10 μL of a mixture of EDTA containing the Tb3+-α-p4EBP1-[pT46] detection Ab (0.5 nM) in TR-FRET dilution buffer (proprietary to IVG). Plates are read 15 mins later in a Synergy2 reader using an integration time of 0.2 seconds and a delay of 0.1 seconds. […] A standard compound is used as a reference compound and included in all assay plates in the form of 16 dilution points in duplicate.

Experiment [1] deals with PKB Ser473 phosphorylation in Rat1-myr-HA-p110 alpha cells. The experiment is described as follows: Reverse protein array assay, PKB Ser473 phosphorylation in Rat1-myr-p110 alpha cells. Format: cell-based. Conditions: 0.5 h, pAkt Ser473, 30 minutes compound incubation, read-out: p-PKB IC50. As for the experimental part:
(§5) The Rat1-myr-HA-p110 alpha, beta and delta cells were trypsinized and counted with a CASY TT cell counter (Schärfe System GmbH, Reutlingen Germany). […] The plates were incubated at 37° C. and 5% CO2 under humidified condition for at least 20 h. Compound of formula I working solutions were prepared freshly as serial 8 step dilutions (vol/vol) in DMSO on the day of the experiment. […] The final DMSO concentration was kept constant at 0.2%. cell culture medium containing 0.2% DMSO was used as vehicle treatment control. Post incubation, the cells were treated with the serial compound dilution. 50 μl of the compound medium mixture was added to the wells containing cells and 150 μl DMEM medium and incubated for 30 minutes (37° C., 5% CO2). After 30 minutes of incubation, the medium mixture was quickly removed by aspiration. […] 50 μl of the described lysis buffer mix was added to each well, followed by 10 minutes of incubation on ice.
(§6) The samples were spotted onto ZeptoMARKt PWG protein microarray chips (Zeptosens, Witterswil, Switzerland) with the piezoelectric microdispense-based, non-contact Nano-Plotter 2.1 (GeSiM, Grosserkmannsdorf, Germany). Each sample was spotted at 4 different sample concentrations (d1=100%, d2=75%, d3=50%, d4=25%) by diluting the cell lysate with the corresponding volume of lysis buffer mix. After spotting the ZeptoMARK® protein microarrays, the chips are incubated for 1 hour at 37° C. […] After 20 minutes of blocking the chips are extensively rinsed with deionized water (Milli-Q quality, 18MΩ×cm) and dried in a nitrogen air flow.
(§7) After incubation, the arrays were washed twice with 200 μl CAB1 buffer. […] The fluorescence signal was assessed with exposure times of 1, 3, 5 and 10 seconds, depending on the intensity of the signal. The resulting four images taken per array are stored as 16-bit TIF files.
(§8) The fluorescence images for each array were analyzed with the ZeptoVIEW Pro 2.0 software (Zeptosens, Witterswil, Switzerland) and the relative fluorescence intensity for each signal was calculated.

The subject of experiment [2] is PKB Ser473 phosphorylation in Rat1-myr-HA-p110 beta cells. Nature of the experiment: Reverse protein array assay, PKB Ser473 phosphorylation in Rat1-myr-p110 beta cells. Format: cell-based. The settings on record: 0.5 h, pAkt Ser473, 30 minutes incubation, read-out: p-PKB IC50. The method, then:
as §5, §6, §7, §8

In experiment [3] the test system is PKB Ser473 phosphorylation in Rat1-myr-HA-p110 delta cells. Nature of the experiment: Reverse protein array assay, PKB Ser473 phosphorylation in Rat1-myr-p110 delta cells. It is filed as cell-based. The settings on record: read-out: p-PKB IC50. As for the experimental part: as §5, §6, §7, §8
Experiment [4] has as its system S6 Ribosomal Protein phosphorylation Ser235/236 in TSC1 null mouse embryo fibroblast (MEF) cells. Nature of the experiment: Reverse protein array assay, S6 Ribosomal Protein phosphorylation Ser235/236 in TSC1 null MEF cells. Conditions: 1 h, pS6 ribosomal protein Ser235/236, 60 minutes incubation, read-out: p-S6 IC50. Format: cell-based. As for the experimental part:
as §5, with “TSC1−/−” for “Rat1-myr-HA-p110 alpha, beta and delta”, “(Schirfe” for “(Schärfe”, “Working” for “Compound of formula I working”, “0.02%.” for “0.2%.”, “0.02%” for “0.2%”, “60” for “30”
The spotting of the chips follows the previous described method.

A further experiment deals with T3, PI3K delta (Homo sapiens, UniProt O00329).
T3 construct: for the full-length p110-d subunit are generated and fused by overlapping PCR; p85(iSH2) fusion partner (see partner chain) (N); His tag (C); made in house; host or cells: baculovirus; Tn5 (Trichoplusia ni) or TiniPro insect cells
The experiment is described as follows: PI3K delta kinase assay (Kinase-Glo luminescence). Format: biochemical. The method, then:
as §1, §2, §3
PI3Kγ BV-1060 p85(iSH2)-Gly Linker-p110d(Full-Length)-C-Term his Tag
as §4

T1 sequence (P42336 with tags, fused parts or gaps limits assumed): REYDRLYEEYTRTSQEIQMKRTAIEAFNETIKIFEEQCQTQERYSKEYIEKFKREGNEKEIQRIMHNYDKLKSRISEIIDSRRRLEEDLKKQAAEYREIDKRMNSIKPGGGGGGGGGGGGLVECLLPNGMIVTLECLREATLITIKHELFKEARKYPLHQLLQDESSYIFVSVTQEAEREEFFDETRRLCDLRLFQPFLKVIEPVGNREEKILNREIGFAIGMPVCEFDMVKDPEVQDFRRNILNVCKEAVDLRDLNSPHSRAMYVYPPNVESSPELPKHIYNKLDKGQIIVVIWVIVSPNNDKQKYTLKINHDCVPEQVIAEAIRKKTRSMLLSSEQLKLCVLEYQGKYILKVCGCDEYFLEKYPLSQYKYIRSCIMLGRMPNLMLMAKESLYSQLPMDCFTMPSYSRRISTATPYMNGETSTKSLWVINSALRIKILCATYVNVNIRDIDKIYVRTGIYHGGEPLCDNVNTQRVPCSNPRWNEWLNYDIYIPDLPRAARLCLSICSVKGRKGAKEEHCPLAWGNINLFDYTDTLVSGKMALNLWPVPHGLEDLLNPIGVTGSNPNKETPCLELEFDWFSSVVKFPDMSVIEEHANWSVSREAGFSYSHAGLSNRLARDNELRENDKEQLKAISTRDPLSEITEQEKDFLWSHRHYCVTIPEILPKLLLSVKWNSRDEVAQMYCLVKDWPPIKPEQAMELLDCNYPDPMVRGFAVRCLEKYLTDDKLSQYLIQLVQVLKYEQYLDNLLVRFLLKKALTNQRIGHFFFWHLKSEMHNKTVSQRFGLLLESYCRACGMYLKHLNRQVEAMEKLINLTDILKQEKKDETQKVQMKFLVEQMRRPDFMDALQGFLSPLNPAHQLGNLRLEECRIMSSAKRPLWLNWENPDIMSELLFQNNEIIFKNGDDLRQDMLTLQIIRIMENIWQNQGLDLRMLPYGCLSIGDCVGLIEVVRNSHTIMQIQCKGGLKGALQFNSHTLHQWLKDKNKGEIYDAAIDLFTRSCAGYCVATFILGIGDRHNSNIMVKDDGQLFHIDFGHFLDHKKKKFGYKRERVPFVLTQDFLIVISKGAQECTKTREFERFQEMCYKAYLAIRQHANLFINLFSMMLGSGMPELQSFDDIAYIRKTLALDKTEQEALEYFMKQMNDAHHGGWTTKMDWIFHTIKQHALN
T2 sequence (P42345 1360-2549 limits assumed): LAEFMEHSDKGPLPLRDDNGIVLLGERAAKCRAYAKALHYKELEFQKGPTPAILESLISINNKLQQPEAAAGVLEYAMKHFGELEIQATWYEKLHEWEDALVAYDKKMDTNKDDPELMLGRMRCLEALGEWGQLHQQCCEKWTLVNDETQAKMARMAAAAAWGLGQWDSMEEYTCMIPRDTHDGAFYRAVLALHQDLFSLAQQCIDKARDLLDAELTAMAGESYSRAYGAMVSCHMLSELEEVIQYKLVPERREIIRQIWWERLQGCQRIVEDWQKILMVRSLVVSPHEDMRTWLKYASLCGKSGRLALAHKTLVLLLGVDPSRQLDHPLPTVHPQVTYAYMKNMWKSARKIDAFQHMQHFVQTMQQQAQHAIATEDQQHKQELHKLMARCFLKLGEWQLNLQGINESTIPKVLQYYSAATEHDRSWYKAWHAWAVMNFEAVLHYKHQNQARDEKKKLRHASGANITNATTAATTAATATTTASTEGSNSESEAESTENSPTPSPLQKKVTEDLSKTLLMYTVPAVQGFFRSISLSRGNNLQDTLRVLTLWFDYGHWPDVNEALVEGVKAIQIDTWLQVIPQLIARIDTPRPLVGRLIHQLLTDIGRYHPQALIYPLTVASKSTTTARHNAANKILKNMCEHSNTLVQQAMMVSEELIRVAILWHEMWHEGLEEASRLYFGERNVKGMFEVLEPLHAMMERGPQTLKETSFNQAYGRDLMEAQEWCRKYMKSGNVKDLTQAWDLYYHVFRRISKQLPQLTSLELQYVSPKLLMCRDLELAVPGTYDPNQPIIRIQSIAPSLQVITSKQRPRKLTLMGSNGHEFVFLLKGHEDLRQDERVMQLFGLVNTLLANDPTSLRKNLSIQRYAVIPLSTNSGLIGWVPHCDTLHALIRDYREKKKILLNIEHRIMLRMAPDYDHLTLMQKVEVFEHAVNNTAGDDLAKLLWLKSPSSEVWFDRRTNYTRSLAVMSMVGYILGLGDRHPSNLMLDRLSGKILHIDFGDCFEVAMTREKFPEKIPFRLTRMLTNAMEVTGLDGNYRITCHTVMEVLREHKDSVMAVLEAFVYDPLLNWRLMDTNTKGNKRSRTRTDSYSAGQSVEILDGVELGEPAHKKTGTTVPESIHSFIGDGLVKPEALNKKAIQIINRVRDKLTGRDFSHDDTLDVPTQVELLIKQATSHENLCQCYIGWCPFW
T3 sequence (O00329 with tags, fused parts or gaps limits assumed): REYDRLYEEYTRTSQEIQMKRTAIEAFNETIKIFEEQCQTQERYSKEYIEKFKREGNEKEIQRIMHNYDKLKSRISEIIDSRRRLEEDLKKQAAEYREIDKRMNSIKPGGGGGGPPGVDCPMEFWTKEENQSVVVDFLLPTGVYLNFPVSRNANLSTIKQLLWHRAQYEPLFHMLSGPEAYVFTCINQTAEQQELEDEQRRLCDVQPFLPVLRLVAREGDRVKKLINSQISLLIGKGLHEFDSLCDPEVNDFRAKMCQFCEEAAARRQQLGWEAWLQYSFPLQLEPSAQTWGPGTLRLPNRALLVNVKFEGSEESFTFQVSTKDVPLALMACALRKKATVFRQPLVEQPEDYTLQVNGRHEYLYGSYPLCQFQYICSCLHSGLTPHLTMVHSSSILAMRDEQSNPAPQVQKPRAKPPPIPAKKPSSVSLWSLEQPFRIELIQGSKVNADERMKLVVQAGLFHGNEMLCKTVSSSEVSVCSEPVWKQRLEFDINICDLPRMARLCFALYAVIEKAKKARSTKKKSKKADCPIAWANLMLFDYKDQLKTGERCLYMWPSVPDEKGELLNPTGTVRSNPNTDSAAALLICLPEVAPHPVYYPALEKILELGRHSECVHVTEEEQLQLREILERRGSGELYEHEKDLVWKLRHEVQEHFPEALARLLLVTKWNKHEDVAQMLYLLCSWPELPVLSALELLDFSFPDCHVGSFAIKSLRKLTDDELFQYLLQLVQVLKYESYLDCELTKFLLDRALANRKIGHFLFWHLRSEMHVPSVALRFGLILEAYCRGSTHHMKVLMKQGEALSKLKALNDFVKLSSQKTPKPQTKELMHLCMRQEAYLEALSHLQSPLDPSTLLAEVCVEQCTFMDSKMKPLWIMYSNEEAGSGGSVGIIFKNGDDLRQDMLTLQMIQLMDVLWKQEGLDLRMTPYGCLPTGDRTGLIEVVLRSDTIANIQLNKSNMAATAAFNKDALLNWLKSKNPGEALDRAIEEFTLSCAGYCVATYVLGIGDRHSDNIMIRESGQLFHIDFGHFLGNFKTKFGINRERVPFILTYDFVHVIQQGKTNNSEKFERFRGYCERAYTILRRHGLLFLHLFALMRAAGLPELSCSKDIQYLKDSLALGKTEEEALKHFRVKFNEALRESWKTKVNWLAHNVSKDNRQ

Consider `Cc1nn(CC(=O)N2CCN(C)CC2)cc1-n1c(=O)n(C)c2cnc3ccc(-c4ccccc4)cc3c21` [Example 134, 3-Methyl-1-{3-methyl-1-[2-(4-methyl-piperazin-1-yl)-2-oxo-ethyl]-1H-pyrazol-4-yl}-8-phenyl-1,3-dihydro-imidazo[4,5-c]quinolin-2-one], for which the IC50 on PI3K alpha was 543 nM; at mTOR, 100 nM.

For the molecule `COc1cc(-c2ccc3ncc4c(c3c2)n(-c2cn(C)nc2C)c(=O)n4C)cnc1OC` [Example 204, 8-(5,6-Dimethoxy-pyridin-3-yl)-1-(1,3-dimethyl-1H-pyrazol-4-yl)-3-methyl-1,3-dihydro-imidazo[4,5-c]quinolin-2-one], the IC50 in experiment [1] is 8 nM; in experiment [2], 12 nM; in experiment [3], 9 nM; in experiment [4], less than 0.5 nM.

On to `Cc1nn(CC(=O)N2CCN(C)CC2)cc1-n1c(=O)n(C)c2cnc3ccc(-c4cnc(N5CCCC5)nc4)cc3c21` [Example 247.5, 3-Methyl-1-{3-methyl-1-[2-(4-methyl-piperazin-1-yl)-2-oxo-ethyl]-1H-pyrazol-4-yl}-8-(2-pyrrolidin-1-yl-pyrimidin-5-yl)-1,3-dihydro-imidazo[4,5-c]quinolin-2-one], for which the IC50 on PI3K alpha was 971 nM; on mTOR it was 99 nM; in experiment [1], 828 nM; in experiment [4], 201 nM.

`COc1ccc(-c2ccc3ncc4c(c3c2)n(-c2cn(C)nc2Cl)c(=O)n4C)cc1OC` [1.10—]: the IC50 at mTOR came to 14 nM.

For the molecule `Cc1nn(C)cc1-n1c(=O)n(C)c2cnc3ccc(-c4ccc(NC5CCOCC5)nc4)cc3c21` [Example 214, 1-(1,3-Dimethyl-1H-pyrazol-4-yl)-3-methyl-8-[6-(tetrahydro-pyran-4-ylamino)-pyridin-3-yl]-1,3-dihydro-imidazo[4,5-c]quinolin-2-one], the IC50 is 285 nM in experiment [1], 608 nM in experiment [2] and 46 nM in experiment [4].

Turning to `CO[C@H]1CCN(c2ccc(-c3ccc4ncc5c(c4c3)n(-c3cn(C)nc3C)c(=O)n5C)cn2)C1` [Example 213.2, 1-(1,3-Dimethyl-1H-pyrazol-4-yl)-8-[6-((S)-3-methoxy-pyrrolidin-1-yl)-pyridin-3-yl]-3-methyl-1,3-dihydro-imidazo[4,5-c]quinolin-2-one], the IC50 on PI3K alpha is 220 nM; at PI3K delta, 211 nM; on mTOR it was 123 nM; in experiment [1] it was 58 nM; in experiment [2], 119 nM.

As for `CCn1nccc1-n1c(=O)n(C)c2cnc3ccc(-c4ccc(N(C)C)nc4)cc3c21` [Example 4.8, 8-(6-Dimethylamino-pyridin-3-yl)-1-(2-ethyl-2H-pyrazol-3-yl)-3-methyl-1,3-dihydro-imidazo[4,5-c]quinolin-2-one], the IC50 was found to be 251 nM at mTOR, 158 nM in experiment [1], 154 nM in experiment [2] and 278 nM in experiment [3].

Turning to `CCOc1cc(-c2ccc3ncc4c(c3c2)n(-c2cn(C)nc2C)c(=O)n4C)cnc1OC` [Example 94, 1-(1,3-Dimethyl-1H-pyrazol-4-yl)-8-(5-ethoxy-6-methoxy-pyridin-3-yl)-3-methyl-1,3-dihydro-imidazo[4,5-c]quinolin-2-one], the values for the IC50 in experiment [1], in experiment [2] and in experiment [3] were less than 5 nM, 11 nM and 9 nM, respectively.

Turning to `Cc1nn(C)cc1-n1c(=O)n(C)c2cnc3ccc(-c4ccc(-n5ccnc5C)nc4)cc3c21` [Example 78, 1-(1,3-Dimethyl-1H-pyrazol-4-yl)-3-methyl-8-[6-(2-methyl-imidazol-1-yl)-pyridin-3-yl]-1,3-dihydro-imidazo[4,5-c]quinolin-2-one], the figures for the half-inhibitory concentration (IC50) in experiment [1], in experiment [2] and in experiment [3] were 264 nM, 386 nM and 959 nM, respectively.
